Source: patent US20230159509A1 (Amathus Therapeutics, Inc., priority 2020, published 2023)

Experiments:
TRAP1 enzyme = biological target: T1, TRAP1 enzyme (Homo sapiens, UniProt Q12931); test: ADP Glo assay of TRAP1 ATPase activity; type: biochemical
T1 construct: 150 nM Trap1 enzyme was incubated with various concentrations of the test compound
T1 sequence (Q12931 60-704): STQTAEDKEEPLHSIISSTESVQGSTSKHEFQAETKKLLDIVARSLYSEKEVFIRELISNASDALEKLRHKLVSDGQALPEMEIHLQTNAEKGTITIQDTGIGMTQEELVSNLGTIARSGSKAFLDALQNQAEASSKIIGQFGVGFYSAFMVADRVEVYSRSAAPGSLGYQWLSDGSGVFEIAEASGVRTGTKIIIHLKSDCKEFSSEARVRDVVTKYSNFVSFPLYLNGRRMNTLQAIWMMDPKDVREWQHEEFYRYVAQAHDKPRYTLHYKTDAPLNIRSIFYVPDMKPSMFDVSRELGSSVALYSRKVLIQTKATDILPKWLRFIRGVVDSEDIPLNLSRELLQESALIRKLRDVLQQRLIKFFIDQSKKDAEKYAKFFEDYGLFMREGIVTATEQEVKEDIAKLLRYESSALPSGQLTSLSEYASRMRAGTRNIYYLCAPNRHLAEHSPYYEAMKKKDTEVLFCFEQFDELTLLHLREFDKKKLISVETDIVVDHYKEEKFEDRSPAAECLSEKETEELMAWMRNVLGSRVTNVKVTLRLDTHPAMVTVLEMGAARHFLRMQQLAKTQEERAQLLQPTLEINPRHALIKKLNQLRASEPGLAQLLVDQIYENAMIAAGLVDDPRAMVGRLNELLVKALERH
Procedure, shortened: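 ADP-Glo luminescence quantifying ADP from 150 nM TRAP1 preincubated 30 min at 37° C with compound (0.79–100 μM), then 20 μM ATP for 60 min at 37° C. Buffer: 25 mM Pipes pH 7.5, 40 mM KCl, 0.05 mM MgCl2, EGTA, BSA, detergents. ADP from ATP/ADP standard curve; Emax and EC50 from sigmoidal fit.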

human α-synuclein-WT = test: α-synuclein expression and aggregation assay in differentiated neuronal ReNcell VM cells; type: cell-based
Experimental: Assay measuring α-synuclein expression and aggregation in differentiated neuronal ReNcell VM cells transduced with human α-synuclein-WT were used to assess the α-synuclein modulation characteristics of compounds. To this purpose, ReNcell VM cells in growth medium (containing EGF and bFGF) were seeded in 96-well laminin-coated plates.
Three (3) days post-seeding, on DO, the cells were refreshed with differentiation medium (devoid of EGF and bFGF, supplemented with cAMP and GDNF) and transduced with α-synuclein-encoding adenoviruses. On D1, after overnight transduction, the adenoviral medium was removed and test compound CRCs diluted in differentiation medium were added to the cells in biological duplicates (i.e. in wells located on separate assay plates processed on the same day). The assay includes a compound refreshment on D4. On each plate tested, up to six (6) vehicle control samples (0.1% DMSO) and up to six (6) positive control samples (10 μM KU 0063794) were included. Furthermore, each assay run includes an 8-point CRC of the reference compound KU 0063794. After six (6) days of compound treatment (on D7), the cells were fixed using 3.7% formaldehyde.
Assay readouts were aggregate-selective (MJFR-14) and α/β-synuclein (Syn205) immunoreactivity, quantified using high-content analysis with algorithms for Density×Area (D×A). Co-staining of cell nuclei with DAPI is performed to quantify cell number as a measure of potential toxicity. Synuclein immunoreactivity (D×A) was normalized for the number of nuclei (nuc) per imaged well (D×A/nuc). Compound performance was evaluated by efficacy (percentage inhibition (PIN) relative to positive control) and potency (pIC50, when calculable) determination.
Assay quality was confirmed using the following pre-set criteria: Toxicity: ≤25% nuclei loss compared to average DMSO control, Coefficient of variation (CV): ≤20% CV for DMSO control, Assay window: ≥2.0 for Syn205, and Assay window: ≥1.5 for MJF-14.

COc1ncc(NC(=O)c2csc(-c3ccccc3)n2)cc1S(=O)(=O)Nc1c(C)cccc1C [compound 1178]
EC50 (TRAP1 enzyme; concentration for half maximal activation, read-out: ADP GLO DRC: GeoMean EC50): < 10 µM
Emax (TRAP1 enzyme; maximal percent activation, read-out: ADP GLO DRC: Mean Emax): 200 to 300%
MJFR-14 Max efficacy (PE) (human α-synuclein-WT; MJFR-14): 36.2
MJFR-14 Max efficacy (PIN) (human α-synuclein-WT; MJFR-14, percentage inhibition relative to positive control (10 μM KU 0063794)): 52.1
Syn205 Max efficacy (PE) (human α-synuclein-WT; Syn205): 44.9
Syn205 Max efficacy (PIN) (human α-synuclein-WT; Syn205, percentage inhibition relative to positive control (10 μM KU 0063794)): 64.7
MJFR-14 Potency (pIC50) (human α-synuclein-WT; aggregate-selective (MJFR-14) immunoreactivity, D×A/nuc): 5.6
Syn205 Potency (pIC50) (human α-synuclein-WT; α/β-synuclein (Syn205) immunoreactivity, D×A/nuc): 5.6
